Like-named read-outs stand apart in the source and are kept apart here.
Key:
UWB1.289 cells = test: Cell proliferation inhibitory activity in BRCA1/2-mutant or HRD-positive cells (Cell Titer-Glo); assay type: cell-based; settings: read-out: GI50 UWB1.289 BRCA1 mut
Summary of the method: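 UWB1.289 cells (1,000/well) in 50% MEBM/50% RPMI1640 exposed to […], final 1.5 nM to 10 µM, for 144 h at 37 °C. Viable cells measured by CellTiter-Glo luminescence; GI50 calculated.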

recombinant USP1 protein = target: T1, recombinant USP1 protein (Homo sapiens, UniProt O94782, DEL125-138/DEL229-408/DEL608-737); test: Binding affinity to recombinant USP1 protein by differential scanning fluorimetry; settings: read-out: ΔTm (°C)
T1 sequence (O94782 with tags, fused parts or gaps DEL125-138/DEL229-408/DEL608-737): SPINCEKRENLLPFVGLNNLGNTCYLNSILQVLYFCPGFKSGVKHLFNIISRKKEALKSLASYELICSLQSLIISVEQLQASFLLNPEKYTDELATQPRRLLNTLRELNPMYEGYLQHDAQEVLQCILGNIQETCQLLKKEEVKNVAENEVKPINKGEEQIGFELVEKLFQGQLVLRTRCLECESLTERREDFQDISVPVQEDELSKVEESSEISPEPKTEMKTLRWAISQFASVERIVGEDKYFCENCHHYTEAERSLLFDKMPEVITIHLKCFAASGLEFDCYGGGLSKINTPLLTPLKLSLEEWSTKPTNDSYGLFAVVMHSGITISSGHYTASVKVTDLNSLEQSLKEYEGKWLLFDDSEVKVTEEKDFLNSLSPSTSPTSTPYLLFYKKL
Summary of the method: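 USP1 (Δ1-66, Δ125-138, Δ229-408, Δ608-737) at 0.03 mg/mL with dye in 50 mM Tris-HCl pH 8.0, 150 mM NaCl, 2% glycerol, 1 mM DTT; compounds at 100 µM final. Tm read on real-time PCR instrument; ΔTm = Tm with compound minus Tm with DMSO.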

[1] = UWB1289, UWB1.289 cells, 144 hours after compound treatment, Cell Titer-Glo, 1.5 nM to 10 µM
[2] = compound 100 µM, 0.03 mg/mL USP1 (Δ1-66, Δ125-138, Δ229-408, Δ608-737), Tm with compound minus Tm with DMSO

SMILES | ΔTm at 100 µM (recombinant USP1 protein; [2]) | GI50 (UWB1.289 cells; [1]) | GI50 (UWB1.289 cells; UWB1289, 144 h) | ΔTm at 100 µM (recombinant USP1 protein)
CNC(=O)c1cc2cnc(-c3c(OC)ncnc3C3CC3)cc2n1Cc1ccc(-c2nc(C(F)(F)F)cn2C(C)C)cc1 [Example 154, 6-(4-cyclopropyl-6-methoxypyrimidin-5-yl)-1-(4-(1-isopropyl-4-(trifluoromethyl)-1H-imidazol-2-yl)benzyl)-N-methyl-1H-pyrrolo[3,2-c]pyridine-2-carboxamide] | > 5 °C | < 100 nM | – | –
COc1ncnc(C2CC2)c1-c1ncc2cc(C(=O)NC3(CO)COC3)n(Cc3ccc(-c4nc(C(F)(F)F)cn4C(C)C)cc3)c2n1 [Example 138, 2-(4-cyclopropyl-6-methoxypyrimidin-5-yl)-N-(3-(hydroxymethyl)oxetan-3-yl)-7-(4-(1-isopropyl-4-(trifluoromethyl)-1H-imidazol-2-yl)benzyl)-7H-pyrrolo[2,3-d]pyrimidine-6-carboxamide] | > 5 °C | < 100 nM | – | –
COc1ncnc(C2CC2)c1-c1ncc2cc(C(=O)N3CC[C@@H](OC)C3)n(Cc3ccc(-c4nc(C(F)(F)F)cn4C(C)C)cc3)c2n1 [Example 123, (R) - (2-(4-cyclopropyl-6-methoxypyrimid in-5-yl)-7-(4-(1-isopropyl-4-(trifluoromethyl)-1H-imidazol-2-yl)benzyl)-7H-pyrrolo[2,3-d]pyrimidin-6-yl) (3-methoxypyrrolidin-1-yl)methanone] | – | – | 100 to 500 nM | > 5 °C
CNC(=O)c1cc2cnc(-c3c(OC(C)C)ncnc3C3CC3)nc2n1Cc1ccc(-c2nc(C(F)(F)F)cn2C(C)C)cc1 [Example 119, 2-(4-cyclopropyl-6-isopropoxypyrimidin-5-yl)-7-(4-(1-isopropyl-4-(trifluoromethyl)-1H-imidazol-2-yl)benzyl)-N-methyl-7H-pyrrolo[2,3-d]pyrimidine-6-carboxamide] | > 5 °C | < 100 nM | – | –
CNCCN(C)C(=O)c1cc2cnc(-c3c(OC)ncnc3C3CC3)nc2n1Cc1ccc(-c2nc(C(F)(F)F)cn2C(C)C)cc1 [Example 26, 2-(4-cyclopropyl-6-methoxypyrimidin-5-yl)-7-(4-(1-isopropyl-4-(trifluoromethyl)-1H-imidazol-2-yl)benzyl)-N-methyl-N-(2-(methylamino)ethyl)-7H-pyrrolo[2,3-d]pyrimidine-6-carboxamide] | > 5 °C | < 100 nM | – | –
CCn1cc(C(F)(F)F)nc1-c1ccc(Cn2c(C(=O)NC)cc3cnc(-c4c(OC)ncnc4C4CC4)nc32)cc1 [Example 68, 2-(4-cyclopropyl-6-methoxypyrimidin-5-yl)-7-(4-(1-ethyl-4-(trifluoromethyl)-1H-imidazol-2-yl)benzyl)-N-methyl-7H-pyrrolo[2,3-d]pyrimidine-6-carboxamide] | > 5 °C | < 100 nM | – | –
COc1ncnc(C2CC2)c1-c1ncc2cc(C(=O)NCC3(F)COC3)n(Cc3ccc(-c4nc(C(F)(F)F)cn4C(C)C)cc3)c2n1 [Example 142, 2-(4-cyclopropyl-6-methoxypyrimidin-5-yl)-N-((3-fluorooxetan-3-yl)methyl)-7-(4-(1-isopropyl-4-(trifluoromethyl)-1H-imidazol-2-yl)benzyl)-7H-pyrrolo[2,3-d]pyrimidine-6-carboxamide] | > 5 °C | < 100 nM | – | –
COc1ncnc(C2CC2)c1-c1ncc2cc(C(=O)N3CC(N(C)C)C3)n(Cc3ccc(-c4nc(C(F)(F)F)cn4C)cc3)c2n1 [Example 179, (2-(4-cyclopropyl-6-methoxypyrimid in-5-yl)-7-(4-(1-methyl-4-(trifluoromethyl)-1H-imidazol-2-yl)benzyl)-7H-pyrrolo[2,3-d]pyrimidin-6-yl) (3-(dimethylamino)azetidin-1-yl)methanone] | > 5 °C | < 100 nM | – | –
COc1ncnc(C2CC2)c1-c1ncc2cc(C(=O)N[C@@H](C)C(F)(F)F)n(Cc3ccc(-c4nc(C(F)(F)F)cn4C(C)C)cc3)c2n1 [Example 86, (S)-2-(4-cyclopropyl-6-methoxypyrimidin-5-yl)-7-(4-(1-isopropyl-4-(trifluoromethyl)-1H-imidazol-2-yl)benzyl)-N-(1,1,1-trifluoropropan-2-yl)-7H-pyrrolo[2,3-d]pyrimidine-6-carboxamide] | > 5 °C | < 100 nM | – | –
CCN(CC)C(=O)c1cc2cnc(-c3c(OC)ncnc3C3CC3)nc2n1Cc1ccc(-c2nc(C(F)(F)F)cn2C(C)C)cc1 [Example 42, 2-(4-cyclopropyl-6-methoxypyrimidin-5-yl)-N,N-diethyl-7-(4-(1-isopropyl-4-(trifluoromethyl)-1H-imidazol-2-yl)benzyl)-7H-pyrrolo[2,3-d]pyrimidine-6-carboxamide] | > 5 °C | 100 to 500 nM | – | –
COc1ncnc(C2CC2)c1-c1ncc2cc(C(=O)N[C@@H]3CCN(C)CC3(F)F)n(Cc3ccc(-c4nc(C(F)(F)F)cn4C)cc3)c2n1 [Example 207, (R) -2-(4-cyclopropyl-6-methoxypyrimidin-5-yl)-N-(3,3-difluoro-1-methylpiperidin-4-yl)-7-(4-(1-methyl-4-(trifluoromethyl)-1H-imidazol-2-yl)benzyl)-7H-pyrrolo[2,3-d]pyrimidine-6-carboxamide] | > 5 °C | < 100 nM | – | –

More lines, main results first:

ΔTm at 100 µM (recombinant USP1 protein; [2]) | SMILES | GI50 (UWB1.289 cells; [1]) | GI50 (UWB1.289 cells; UWB1289, 144 h) | ΔTm at 100 µM (recombinant USP1 protein)
> 5 °C | COc1ncnc(C2CC2)c1-c1ncc2cc(C(N)=O)n(Cc3ccc(-c4nc(C(F)(F)F)cn4C(C)C)cc3)c2n1 [Example 32, 2-(4-cyclopropyl-6-methoxypyrimidin-5-yl)-7-(4-(1-isopropyl-4-(trifluoromethyl)-1H-imidazol-2-yl)benzyl)-7H-pyrrolo[2,3-d]pyrimidine-6-carboxamide] | < 100 nM | – | –
> 5 °C | COc1ncnc(C2CC2)c1-c1ncc2cc(C(=O)N[C@@H]3CCN(C)C3)n(Cc3ccc(-c4nc(C(F)(F)F)cn4C(C)C)cc3)c2n1 [Example 175, (R)-2-(4-cyclopropyl-6-methoxypyrimidin-5-yl)-7-(4-(1-isopropyl-4-(trifluoromethyl)-1H-imidazol-2-yl)benzyl)-N-(1-methylpyrrolidin-3-yl)-7H-pyrrolo[2,3-d]pyrimidine-6-carboxamide] | < 100 nM | – | –
> 5 °C | [2H]C([2H])([2H])Oc1ncnc(C2CC2)c1-c1ncc2cc(C(=O)NC)n(Cc3ccc(-c4nc(C(F)(F)F)cn4C(C)C)cc3)c2n1 [Example 3, 2-(4-cyclopropyl-6-(methoxy-d3)pyrimidin-5-yl)-7-(4-(1-isopropyl-4-(trifluoromethyl)-1H-imidazol-2-yl)benzyl)-N-methyl-7H-pyrrolo[2,3-d]pyrimidine-6-carboxamide] | < 100 nM | – | –
> 5 °C | COCCNC(=O)c1cc2cnc(-c3c(OC)ncnc3C3CC3)nc2n1Cc1ccc(-c2nc(C(F)(F)F)cn2C(C)C)cc1 [Example 106, 2-(4-cyclopropyl-6-methoxypyrimidin-5-yl)-7-(4-(1-isopropyl-4-(trifluoromethyl)-1H-imidazol-2-yl)benzyl)-N-(2-methoxyethyl)-7H-pyrrolo[2,3-d]pyrimidine-6-carboxamide] | < 100 nM | – | –
> 5 °C | COc1ncnc(C2CC2)c1-c1ncc2cc(C(=O)NC[C@@H]3CCCN3C)n(Cc3ccc(-c4nc(C(F)(F)F)cn4C(C)C)cc3)c2n1 [Example 108, (S)-2-(4-cyclopropyl-6-methoxypyrimidin-5-yl)-7-(4-(1-isopropyl-4-(trifluoromethyl)-1H-imidazol-2-yl)benzyl)-N-((1-methylpyrrolidin-2-yl)methyl)-7H-pyrrolo[2,3-d]pyrimidine-6-carboxamide] | < 100 nM | – | –
> 5 °C | CNC(=O)c1cc2cnc(-c3c(OC)ncnc3C3CC3)nc2n1Cc1ccc(-c2nc(C(F)(F)F)cn2C(C)C)cc1 [Example 1, 2-(4-cyclopropyl-6-methoxypyrimidin-5-yl)-7-(4-(1-isopropyl-4-(trifluoromethyl)-1H-imidazol-2-yl)benzyl)-N-methyl-7H-pyrrolo[2,3-d]pyrimidine-6-carboxamide] | < 100 nM | – | –
> 5 °C | COc1ncnc(C2CC2)c1-c1ncc2cc(C(=O)N[C@H]3C[C@H](OC)C3)n(Cc3ccc(-c4nc(C(F)(F)F)cn4C(C)C)cc3)c2n1 [Example 122, 2-(4-cyclopropyl-6-methoxypyrimidin-5-yl)-7-(4-(1-isopropyl-4-(trifluoromethyl)-1H-imidazol-2-yl)benzyl)-N-((1r,3r)-3-methoxycyclobutyl)-7H-pyrrolo[2,3-d]pyrimidine-6-carboxamide] | 100 to 500 nM | – | –
> 5 °C | COc1ncnc(C2CC2)c1-c1ncc2cc(C(=O)N(C)C)n(Cc3ccc(-c4nc(C(F)(F)F)cn4C(C)C)cc3)c2n1 [Example 5, 2-(4-cyclopropyl-6-methoxypyrimidin-5-yl)-7-(4-(1-isopropyl-4-(trifluoromethyl)-1H-imidazol-2-yl)benzyl)-N,N-dimethyl-7H-pyrrolo[2,3-d]pyrimidine-6-carboxamide] | < 100 nM | – | –

Source: EP4806898A1, “HETEROARYL DERIVATIVE COMPOUND AND USE THEREOF” (Voronoi Inc., priority 2023, dated 2025)
